≈ marks a conversion by molar mass, not a printed value.
Assays:
Type in all cases: functional
[1] = test system: Micrococcus luteus; experiment: Antibacterial activity against Micrococcus luteus ATCC 9345 after 18 hrs by broth microdilution assay; conditions: ATCC 9345, 18 h
[2] = test system: Pichia kudriavzevii; experiment: Antifungal activity against Candida krusei ATCC 6258 after 18 hrs by broth microdilution assay; conditions: ATCC 6258, 18 h
[3] = test system: Escherichia coli; experiment: Antibacterial activity against Escherichia coli ATCC 4230 after 18 hrs by broth microdilution assay; conditions: ATCC 4230, 18 h
[4] = test system: Candida parapsilosis; experiment: Antifungal activity against Candida parapsilosis ATCC 22019 after 18 hrs by broth microdilution assay; conditions: Lodderomyces parapsilosis, ATCC 22019, 18 h
[5] = test system: Staphylococcus aureus; experiment: Antibacterial activity against Staphylococcus aureus ATCC 25923 after 18 hrs by broth microdilution assay; conditions: ATCC 25923, 18 h
[6] = test system: Bacillus cereus; experiment: Antibacterial activity against Bacillus cereus ATCC 7064 after 18 hrs by broth microdilution assay; conditions: ATCC 7064, 18 h
[7] = test system: Staphylococcus aureus; experiment: Antibacterial activity against Staphylococcus aureus ATCC 6538 after 18 hrs by broth microdilution assay; conditions: ATCC 6538, 18 h
[8] = test system: Candida albicans; experiment: Antifungal activity against Candida albicans ATCC 14053 after 18 hrs by broth microdilution assay; conditions: ATCC 14053, 18 h

Row | Compound | MIC [1] [µg/mL] | MIC [2] [µg/mL] | MIC [3] [µg/mL] | MIC [4] [µg/mL] | MIC [5] [µg/mL] | MIC [6] [µg/mL] | MIC [7] [µg/mL] | MIC [8] [µg/mL]
1 | Cc1cc(/C=N/n2cc(C(=O)c3ccccc3)c(-c3ccccc3)nc2=O)c(O)c(/C=N/n2cc(C(=O)c3ccccc3)c(-c3ccccc3)nc2=O)c1 | 20 (≈ 28.1 µM) | 40 (≈ 56.3 µM) | 40 (≈ 56.3 µM) | 40 (≈ 56.3 µM) | 20 (≈ 28.1 µM) | 80 (≈ 113 µM) | 20 (≈ 28.1 µM) | 40 (≈ 56.3 µM)
2 | CC1(C)S[C@@H]2[C@H](NC(=O)[C@H](N)c3ccccc3)C(=O)N2[C@H]1C(=O)O [AMPICILLIN] | 10 (≈ 28.6 µM) | – | – | – | – | 5 (≈ 14.3 µM) | – | –
3 | OC(Cn1cncn1)(Cn1cncn1)c1ccc(F)cc1F [FLUCONAZOLE] | – | 10 (≈ 32.7 µM) | – | – | – | – | – | –

From ChEMBL document CHEMBL1157874, “Synthesis, spectroscopic and biological studies on the new symmetric Schiff base derived from 2,6-diformyl-4-methylphenol with N-aminopyrimidine” (2010)
